# Several values for one entry are separate records, joined by “and”; a condition that tells them apart may be missing. Equal values may be shown once. Read-outs that look alike come from different tables or passages of the source.
# Assays:
# [1] = Toxicokinetics after intravenous injection in mice; assay type: in vivo; settings: male ICR mice; for MRT / Vd / clearance / half-life / AUC(0-inf) / AUC(0-t) / C0: mouse, mean ± SD; for MRT: AUMC/AUC; for Vd: CLxMRT, read-out: Vss; for clearance: Dose/AUC; for half-life: plasma elimination half-life; for AUC(0-inf) / AUC(0-t) / C0: LC-HRMS, non-compartmental
# Protocol: The Institutional Animal Care and Use Committee of the Catholic University of Korea (approval number, CUK-IACUC-2021-004; approval date, 21 March 2021) approved the study protocol. Male ICR mice (8 weeks of age, 27.4 ± 2.3 g) were purchased from Orient Bio Inc. (Seongnam, Korea). Mice were kept in plastic cages with unlimited access to a standard mouse diet (Orient Bio) and water before the experiments. For oral administration, mice were fasted for at least 12 h but allowed free access to water.
# β-amanitin was dissolved in water and administered by iv bolus injection into the tail vein of mice at doses of 0.2 (n = 8), 0.4 (n = 6), and 0.8 (n = 7) mg/kg. Blood samples (approximately 15 μL) were collected from the retro-orbital plexus under light anesthesia with isoflurane at 0.033, 0.083, 0.25, 0.5, 0.75, 1, 1.5, 2, 3, 4, 6, and 8 h after drug administration.
# Concentrations of β-amanitin in biological samples were evaluated following our previous methodology. The standard calibration curves for β-amanitin in mouse plasma ranged from 0.5 to 500 ng/mL and were linear, with a correlation coefficient of 0.9952. The inter- and intra-day accuracy and precision fell within the acceptance criteria (3.1–14.6% of coefficients of variation (CVs) and 92.5–115.0% of accuracy). The extraction recovery and matrix effect of this analytical method were 82.8–88.9% and 93.0–98.6%.
# An aliquot (5 μL) of plasma sample was mixed with 15 μL of 4′-hydroxydiclofenac (internal standard (IS), 5 ng/mL) in methanol and vortexed for 2 min. The mixture was centrifuged at 13,000× g at 4 °C for 5 min, and the supernatant was then transferred to an autosampler vial. An aliquot (5 μL) was injected into the LC-HRMS system for analysis.
# The toxicokinetic parameters of β-amanitin were analyzed by non-compartmental analyses (WinNonlin, Pharsight; Mountain View, CA, USA) (Table 1). Data were expressed as mean ± standard deviations (SD). Comparisons of data between groups were performed using one-way ANOVA or Student t-test. Values of p < 0.05 were considered statistically significant.
# OAT3 = biological target: T1, OAT3 (Homo sapiens, UniProt Q8TCC7); assay: OAT3 transport inhibition in HEK293-OAT3 cells; assay type: in vitro ADME; parameters: host or cells: HEK293 (TransportoCells); settings: 0.1 μM probe substrate, HBSS pH 7.4, β-amanitin 0.01–250 μM (methods), n = 3, read-out: IC50, OAT3-mediated [3H]estrone-3-sulfate uptake
# T1 sequence (Q8TCC7 1-542): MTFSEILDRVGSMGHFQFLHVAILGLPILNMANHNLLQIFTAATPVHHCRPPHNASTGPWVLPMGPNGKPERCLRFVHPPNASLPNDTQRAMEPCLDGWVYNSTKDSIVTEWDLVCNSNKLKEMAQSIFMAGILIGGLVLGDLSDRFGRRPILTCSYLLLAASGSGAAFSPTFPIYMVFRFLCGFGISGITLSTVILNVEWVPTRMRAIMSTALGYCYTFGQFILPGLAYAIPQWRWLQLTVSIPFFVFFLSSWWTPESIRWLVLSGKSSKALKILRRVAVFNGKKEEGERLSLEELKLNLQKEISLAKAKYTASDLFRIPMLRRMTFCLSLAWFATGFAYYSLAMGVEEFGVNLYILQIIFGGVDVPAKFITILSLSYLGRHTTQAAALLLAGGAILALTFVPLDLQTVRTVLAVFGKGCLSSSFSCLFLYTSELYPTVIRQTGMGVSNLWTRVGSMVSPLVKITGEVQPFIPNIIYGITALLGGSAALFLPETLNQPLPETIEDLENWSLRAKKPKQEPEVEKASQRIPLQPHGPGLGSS
# Protocol: β-amanitin inhibition (IC50 values) of OCT1, OCT2, MATE2-K, OAT1, OAT3, Na^+/taurocholate co-transporting polypeptide (NTCP), OATP1B1, OATP1B3, P-glycoprotein (P-gp), and breast-cancer-resistant protein (BCRP) transport activities were assessed in HEK293 cells overexpressing individual transporters (TransportoCells™, Corning), LLC-PK1-P-gp (Corning), or LLC-PK1-BCRP (obtained from Dr. A.H. Schinkel, Netherlands Cancer Institute; Amsterdam, The Netherlands), as previously reported. Each incubation mixture was prepared to a final volume of 100 μL HBSS (pH 7.4) containing 0.1 μM probe substrates ([^3H]methyl-4-phenylpyridinium for OCT1 and OCT2, [^14C]metformin for MATE2-K, [^3H]p-aminohippuric acid for OAT1, [^3H]estrone-3-sulfate for OAT3, OATP1B1 and BCRP, [^3H]taurocholate for NTCP, [^3H]17-β-D-estradiol-glucuronide for OATP1B3, [^3H]digoxin for P-gp) and various concentrations of β-amanitin (0.01–250 μM), as previously described.
# [2] = plasma, iv bolus 0.2 mg/kg, n = 8
# [3] = plasma, iv bolus 0.4 mg/kg, n = 6
# [4] = plasma, iv bolus 0.8 mg/kg, n = 7
# [5] = iv bolus 0.2 mg/kg, plasma, n = 8
# [6] = iv bolus 0.4 mg/kg, plasma, n = 6
# [7] = iv bolus 0.8 mg/kg, plasma, n = 7
smiles,measurement,setting,value
CC[C@H](C)[C@@H]1NC(=O)CNC(=O)[C@@H]2Cc3c([nH]c4cc(O)ccc34)[S@+]([O-])C[C@H](NC(=O)CNC1=O)C(=O)N[C@@H](CC(=O)O)C(=O)N1C[C@H](O)C[C@H]1C(=O)N[C@@H]([C@@H](C)[C@@H](O)CO)C(=O)N2 [β-amanitin],"t1/2, range over the iv doses","[1]; iv 0.2, 0.4 and 0.8 mg/kg, plasma, range of the dose-group means",18.3–33.6 min and 18.3~33.6 min
same,MRT,[1]; [2],22.8 min
same,Vd,[1]; [2],0.359 ± 0.0855 L/kg
same,clearance,[1]; [2],15.3 ± 2.5 mL/min/kg
same,MRT,[1]; [3],22.4 min
same,Vd,[1]; [3],0.366 ± 0.061 L/kg
same,clearance,[1]; [3],16.2 ± 2.4 mL/min/kg
same,MRT,[1]; [4],20.7 min
same,Vd,[1]; [4],0.39 ± 0.0771 L/kg
same,clearance,[1]; [4],18.8 ± 6 mL/min/kg
same,half-life,"[1]; iv bolus 0.2 mg/kg, n = 8",21.8 ± 8.3 min
same,AUC(0-inf),[1]; [5],223 ng·h/mL
same,AUC(0-t),[1]; [5],222 ng·h/mL
same,half-life,"[1]; iv bolus 0.4 mg/kg, n = 6",18.3 ± 3.1 min
same,AUC(0-inf),[1]; [6],421 ng·h/mL
same,AUC(0-t),[1]; [6],420 ng·h/mL
same,half-life,"[1]; iv bolus 0.8 mg/kg, n = 7",33.6 ± 22.4 min
same,AUC(0-inf),[1]; [7],771 ng·h/mL
same,AUC(0-t),[1]; [7],769 ng·h/mL
same,C0,"[1]; iv bolus (tail vein) 0.2 mg/kg in water, plasma, n = 8",712 ± 182 ng/mL
same,C0,"[1]; iv bolus (tail vein) 0.4 mg/kg in water, plasma, n = 6",1440 ± 324 ng/mL
same,C0,"[1]; iv bolus (tail vein) 0.8 mg/kg in water, plasma, n = 7",3250 ± 904 ng/mL
same,IC50,OAT3,37.4 µM

# — paper PMC9030691, “Toxicokinetics of β-Amanitin in Mice and In Vitro Drug–Drug Interaction Potential” (Pharmaceutics, 2022)
